Results as given in ChEMBL document CHEMBL3832071, “DailyMed|setid=56428c8f-8a4b-4cbf-93f1-28d8b5cfb51a | MYCOPHENOLATE MOFETIL- mycophenolate mofetil capsule|MYCOPHENOLATE MOFETIL- mycophenolate mofetil tablet, film coated | Cadila Healthcare Limited”.
Several values for one entry are separate records, joined by “and”; a condition that tells them apart may be missing. Equal values may be shown once.

What was measured:
Assay type in all cases: ADME, organism-based
[1] = test system: Homo sapiens; experiment: Apparent Volume of distribution (Vd) of […] following oral and intravenous (IV) administration of Mycophenolate Mofetil to 12 healthy volunteers; conditions: in vivo, dosed compound id 90, dosed compound name MYCOPHENOLATE MOFETIL, gender male and female, tissue Plasma
[2] = test system: Homo sapiens; experiment: Pharmacokinetic parameters for Mycophenolic acid following single oral administration of Mycophenolate Mofetil to subjects with different health status.; design: dose 1 g, route oral; conditions: in vivo, dosed compound id 90, dosed compound name MYCOPHENOLATE MOFETIL, gender male and female, regimen Single dose, tissue Plasma
[3] = test system: Homo sapiens; experiment: Pharmacokinetic parameters for Mycophenolic acid following multiple administration of Mycophenolate Mofetil to hepatic, cardiac and renal transplant patients, at least 5 days after transplant.; design: dose 600 mg/m2, dose 1.5 g, dose 1 g, route oral, route iv; conditions: in vivo, 120 h, dosed compound id 90, dosed compound name MYCOPHENOLATE MOFETIL, gender male and female, regimen Twice daily, tissue Plasma

Vd ([1]; iv): 3.6 L/kg
Vd ([1]; po): 4 L/kg
AUC(0-48) [2]: 29800 ng·h/mL
Total AUC [2]: 63900 ng·h/mL
AUC(0-12) ([3]; sampling time1 4 hours): 54.1 µg·h/mL
AUC(0-12) [3]: 43.3 mcg.hr/mL [middle of 21 runs]
Tmax ([3]; iv, dose 1 g): 1.58 h and 1.5 h
Tmax ([3]; po, dose 1 g): 1.33 h and 1.31 h
Tmax ([3]; po, dose 1.5 g): 1.15 hr [middle of 5 runs]
Structure (SMILES): COc1c(C)c2c(c(O)c1C/C=C(\C)CCC(=O)O)C(=O)OC2 [MYCOPHENOLIC ACID]
Tmax ([2]; dose 1 g, route oral): 0.8 h and 0.75 h and 0.63 h and 1 h and 0.85 h
AUC(0-96) [2]: 45000 ng·h/mL and 59900 ng·h/mL and 78600 ng·h/mL
Cmax [2]: 24500 ng/mL and 25300 ng/mL and 16300 ng/mL and 22400 ng/mL
